Reference: patent US12171821B2, “Toxoplasma gondii vaccine” (priority 2018, dated 2024)
Where “and” joins values, the source holds several entries; their conditions need not be identical. Identical values can stand only once. Entries after “also recorded” stand apart in the source; their conditions may differ.

Columns and labels:
[1] = system: T. gondii ME49 bradyzoites; experiment: Real-time PCR on ileum cDNA of infected Z-DNA binding protein knock out mice; format: in vivo, Toxoplasma gondii; settings: mice, linoleic acid and SC26196 50 mg/kg every 12 hours by oral gavage, seven days after infection
Method: (§1) Delta-6-desaturase inhibition. SC 26196 (Cayman) was solubilized in DMSO and used at 20 μM in mouse organoid monolayers. For in vivo treatment, the inhibitor was solubilized in 0.5% m/v methylcellulose and the mice were given 50 mg/kg every 12 hours by oral gavage (He et al., 2012). 4-week old C57BL/6J female mice deleted in Z-DNA-binding protein (Pittman et al., 2016) were divided into four different groups: uninfected control, T. gondii-infected without fatty acid supplementation, T. gondii infected with linoleic acid supplementation, and T. gondii-infected with linoleic acid and SC 26196 inhibitor. Each mouse supplemented with linoleic acid received 10 μL of 99% linoleic acid oil (MilliporaSigma Cat #843483) suspended in 0.5% Methylcellulose per day by oral gavage. Mice were infected with 1000 brain cysts purified as described above by oral gavage and euthanized 7 days post infection. Sample size was at least 2 mice per group and the experiment was repeated 5 times. Alternatively, each mouse was infected with one mouse brain at least 2 months postinfection with at least 1000 cysts. Mice were treated with SC 26196 until day 5 postinfection. Feces were collected from days 5-14 and oocysts enumerated by microscopy.
(§2) Real-time PCR on ileum cDNA. Z-DNA binding protein deletion mice ice with and without delta-6-desaturase inhibitor treatment were euthanized 7 days post infection. The ileum of each mouse was removed and homogenized in 1 mL of TRIzol. Total RNA was isolated according to manufacturer's protocol (Invitrogen) and treated with amplification grade Dnase I. cDNA was generated using the Invitrogen SuperScript III First-Strand Synthesis kit with random hexamer primers. GRA11B and SAG1 were used as markers of sexual and asexual stages, respectively. The T. gondii housekeeping gene TUB1A was used to normalize target gene expression. Real-time quantitative PCR was performed using Bio-Rad iTaq Universal SYBR Green Supermix on 311 an Applied Biosystems StepOnePlus Real-Time PCR system. The efficiency of each primer set was calculated from the slope of a 1:10 dilution standard curve of tachyzoite gDNA, where E=10^(−1/slope). The Pfaffl method (Pfaffl, 2001), which accounts for differences in efficiencies, was then used to calculate the relative gene expression of GRA11B and SAG1 per sample, in triplicate. Only wells with one melt curve temperature were used, indicating a single product. Primer sequences were as follows:
Statistical methods. All real-time PCR fecal samples were run in triplicate technical replicates. The difference between the mean target gene copy numbers was analyzed by two-tailed unpaired t tests. The real-time PCR intestinal samples were run in triplicate from two biological replicates per group. The difference between the mean relative expression of each target gene was analyzed by two-tailed unpaired t tests.

T. gondii [2] = experiment: Real-time PCR (SAG1) on gDNA of mouse fecal samples; format: in vivo, Toxoplasma gondii; settings: mice fed linoleic acid, with or without SC26196
Method: as §1
Real-time PCR on fecal samples. […] A standard curve was generated using a dilution series of 101-105 parasites per well amplified using the SAG1 primer set described above, based on a gDNA sample with known parasite quantity. […]
[formula] […] The calculated copy numbers of each sample were normalized based on the ng of nucleic acid used as PCR template. […]
Statistical methods. […] The difference between the mean target gene copy numbers was analyzed by two-tailed unpaired t tests. […] The difference between the mean relative expression of each target gene was analyzed by two-tailed unpaired t tests.

T. gondii [3] = experiment: Oocyst counts in mouse feces by microscopy; format: in vivo, Toxoplasma gondii; settings: mice, inhibitor every 12 hours for the 7 days of infection
Method: as §1

murine organoids = experiment: Monolayer formation of murine organoids with delta 6-desaturase inhibitor; format: cell-based, mouse; settings: about 2 μM to 200 μM, medium with about 200 μM linoleic acid
[4] = whole animal experiments (He et al., 2012); cited from earlier work
[5] = system: T. gondii ME49 bradyzoites; experiment: Merozoite markers GRA11B/BRP1, immunofluorescence, infected cat intestinal monolayers; format: cell-based, Toxoplasma gondii; settings: 200 μM fatty acid, 5 days of infection
Method: FIGS. 6A-B. Quantification of merozoites in cat tissue culture. A) Cat intestinal organoids were disassociated by trypsin then grown as monolayers on glass slides. Slides were divided into three different groups: not supplemented with fatty acid, supplemented with 200 μM oleic acid or supplemented 200 μM linoleic acid. Monolayers were infected with T. gondii MEM bradyzoites purified from brains of chronic infected mice at a 1:10 MOI. Five days after infection, staining for GRA11B and BRP1 along with DAPI, allowed the percentage of vacuoles positive for GRA11B and BRP1out of the total vacuoles was determined. Total number of parasitophorous vacuoles were counted by positive DAPI staining and confirmed by morphology with DIC. At least 50 parasitophorous vacuoles were counted per replicate. Three biological replicates were counted and on average 35% of the total vacuoles were positive far both GRA11B and BRP1 in the linoleic acid supplemented monolayers. *p-value=0.0126 with N=3 by two-tailed unpaired t test. Straining for both BRP1 and GRA11B was used to ensure that merozoite stages were counted. […] BRP1 is a rhoptry protein that was initially found in bradyzoites; however, it is also expressed in merozoite. […]

[6] = system: T. gondii ME49 bradyzoites; experiment: qPCR of SAG1, GRA11B, TUB1A on cDNA of infected cat intestinal monolayers; format: cell-based, Toxoplasma gondii; settings: cat intestinal monolayers cDNA
Method: FIGS. 6A-B. Quantification of merozoites in cat tissue culture. A) Cat intestinal organoids were disassociated by trypsin then grown as monolayers on glass slides. Slides were divided into three different groups: not supplemented with fatty acid, supplemented with 200 μM oleic acid or supplemented 200 μM linoleic acid. Monolayers were infected with T. gondii MEM bradyzoites purified from brains of chronic infected mice at a 1:10 MOI. Five days after infection, staining for GRA11B and BRP1 along with DAPI, allowed the percentage of vacuoles positive for GRA11B and BRP1out of the total vacuoles was determined. Total number of parasitophorous vacuoles were counted by positive DAPI staining and confirmed by morphology with DIC. At least 50 parasitophorous vacuoles were counted per replicate. Three biological replicates were counted and on average 35% of the total vacuoles were positive far both GRA11B and BRP1 in the linoleic acid supplemented monolayers. *p-value=0.0126 with N=3 by two-tailed unpaired t test. Straining for both BRP1 and GRA11B was used to ensure that merozoite stages were counted. […] BRP1 is a rhoptry protein that was initially found in bradyzoites; however, it is also expressed in merozoite. B) Cat intestinal monolayers were grown as described in panel A, except monolayers were quenched by TRIzol 5 days post-infection, RNA was extracted, and cDNA was synthesized using an oligo (dT) primer to amplify mRNA, Expression of SAG1 and GRA11B were quantified by qPCR and the fold change calculated in comparison with uninfected cells. TUB1A was used to normalize gene expression across samples.
as §2, with “follows: […]” for “follows:”

[7] = system: T. gondii ME49 bradyzoites; experiment: Gametes and intracellular oocyst walls (AO2, 3G4, PCR) in infected cat intestinal monolayers; format: cell-based, Toxoplasma gondii; settings: cultured cat cells, 200 μM fatty acid, 7 days of infection
Method: FIGS. 7A-H. Identification of gametes and intracellular oocysts in cat tissue culture. Cat intestinal organoids were disassociated by trypsin then grown as monolayers on glass slides. […] After 7 days, monolayers were incubated with mouse anti-AO2 (panels A-C) or mouse monoclonal IgM 3G4 (panels E-G), The amiloride-sensitive amine oxidase, copper-containing protein 2 (AO2) is an enzyme exclusively expressed in macrogametes and early oocysts and has a possible role in oocyst wall biogenesis. […] 3G4 is a mouse monoclonal antibody produced by immunizing mice with purified oocyst walls, thus it is a marker of oocyst wall biogenesis. Only monolayers supplemented with linoleic acid (G) had positive 3G4 vacuoles. All panels are 20 μm square with a 5 μm white size bar in the lower right corner. D) Markers for macrogamete and microgamete expression were also evaluated by PCR. Cat intestinal monolayers were grown in 24-well plates until confluency and then infected with T. gondii bradyzoites in duplicate using the same conditions as above. 7 days post-infection, RNA was extracted with TRIzol and cDNA was synthesized using an oligo (dT) primer to only amplify mRNA. AO2 was again used as a marker for macrogametes and the expected PCR product is 218 bp. To assess microgamete presence, we selected the gene TgME49_306338, which is overexpressed in the gametes stage, corresponded to day 7 post-infection in cats and has 44% identity to a protein expressed in the flagella of the motile green algae Chlamydomonas reinhardtii. The expected PCR product for TgME49_306338 is 160 bp. TUB1A was used as an input control and results in a 172 bp product. NO RT corresponds to a cDNA synthesis reaction without the addition of reverse transcriptase (RI) as a control for genomic DNA contamination. Equivalent amounts of cDNA per sample were used as a template for each PCR reaction, and the products were separated on an acrylamide gel. […] H) The number of positive oocyst walls stained with 3G4 were quantified. […] The number of positive oocyst walls were counted in each slide and divided by the area of slide in cm^2.
Immunofluorescence. Intestinal organoid monolayers or mouse fecal samples were fixed in 3.7% formaldehyde in PBS for 20 minutes, permeabilized with 0.2% triton X-100 (Sigma) in PBS at room temperature for one hour and then blocked with 3% BSA in PBS at room temperature for one hour. Primary antibody was incubated at 4° C. overnight in 0.2% v/v Triton x-100 and 3% BSA in PBS (1:100 mouse anti-GRA11B, 1:100 rabbit anti-BRP1, 1:100 mouse anti-AO2, 1:50 monoclonal mouse anti-ZO1 (Santa Cruz) or 1:25 mouse 288 IgM anti-oocyst wall 3G4. Sporulated oocysts from mouse feces were dried onto slides, fixed and permeabilized with ice cold acetone for 30 minutes and incubated with 1:20 mouse 4B6 to the visualize the sporocyst. Slides were incubated one hour with the specific secondary antibody (1:500 goat anti-rabbit Alexa Fluor 488 and 1:500 goat anti-mouse Alexa Fluor 594) at room temperature for one hour and then washed 3 times with PBS. Cells nuclei were stained with 10 μM DAPI (Sigma). Slides were mounted in Vectashield antifade mounting medium (VectorLabs). Samples were imaged on Zeiss Axioplan III equipped with a triple-pass (DAPI/fluorescein isothiocyanate [FITC]/Texas Red) emission cube, differential interference contrast optics, and a monochromatic Axiocam camera operated by Zen software (Zeiss) and processed using ImageJ (Fiji packet).
PCR of cat intestinal monolayers. […]

[8] = biological replicates 1 and 2, wells 1-3

N#CC(CCCN1CCN(/N=C/c2cccnc2)CC1)(c1ccccc1)c1ccccc1 [SC26196]
expression of merozoite marker GRA11B, qPCR of ileum cDNA [1]: significantly up regulated only in the presence of SC26196
T. gondii genomic DNA in mouse fecal samples (qPCR, SAG1 primers) (T. gondii [2]): detectable only in mice treated with SC26196; also recorded: detected only in mice treated with SC26196
oocysts produced (T. gondii [3]): 1000-10,000 oocysts/gram dry feces
monolayer formation (murine organoids): did not inhibit monolayer formation
anti-inflammatory effect [4]: effective as an anti-inflammatory agent

CCCCCCCC/C=C\CCCCCCCC(=O)O [oleic acid]
parasites undergoing sexual development / merozoite stage markers GRA11B and BRP1 (staining) [5]: not
GRA11B Ct mean ([6]; biological replicates 1 and 2): 32.53 and 31.82
SAG1 Ct mean ([6]; biological replicates 1 and 2): 20.83 and 19.56
GRA11B raw Ct values [6, 8]: 32.44 and 31.77 (2×) and 32.73 and 31.91 and 32.43
SAG1 raw Ct values [6, 8]: 20.87 and 19.66 and 20.88 and 19.54 and 20.75 and 19.46
number of positive oocyst walls stained with 3G4 [7]: none
